The test system of this assay is P388 leukemia ip, CD2F1 mice, survival T/C. Nature of the assay: NCI In Vivo Anticancer Drug Screen. Data for tumor model P388 Leukemia (intraperitoneal) in CD2F1 (CDF1) mice. To be noted: endpoint: median survival time, higher = longer survival. An outline of the steps: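 Mice carrying the transplanted tumor received test compound or vehicle. Survival was recorded in each group, and the value is the treated-group measurement divided by that of the vehicle-treated control group.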

[1] abbreviates: dose: 50.0 mg/kg/injection, schedule: Q01DX005 (ip), vehicle: Klucel (hydroxypropylcellulose) (HPC).
Setting [2] is: dose: 100.0 mg/kg/injection, schedule: Q01DX005 (ip), vehicle: Klucel (hydroxypropylcellulose) (HPC).
Setting [3] is: dose: 200.0 mg/kg/injection, schedule: Q01DX005 (ip), vehicle: Klucel (hydroxypropylcellulose) (HPC).
The mark [4] stands for this setting: dose: 100.0 mg/kg/injection, schedule: Q04DX003 (ip), vehicle: saline with Tween-80.
[5] abbreviates: dose: 200.0 mg/kg/injection, schedule: Q04DX003 (ip), vehicle: saline with Tween-80.
The mark [6] stands for this setting: dose: 60.0 mg/kg/injection, schedule: Q01DX005 (ip), vehicle: saline with Tween-80.
[7] abbreviates: dose: 120.0 mg/kg/injection, schedule: Q01DX005 (ip), vehicle: saline with Tween-80.
Setting [8] is: dose: 400.0 mg/kg/injection, schedule: Q04DX003 (ip), vehicle: saline with Tween-80.
Where [9] appears, read: dose: 240.0 mg/kg/injection, schedule: Q01DX005 (ip), vehicle: saline with Tween-80.
[10] abbreviates: dose: 50.0 mg/kg/injection, schedule: Q01DX009 (ip), vehicle: saline.
Where [11] appears, read: dose: 100.0 mg/kg/injection, schedule: Q01DX009 (ip), vehicle: saline.

Structures are written as SMILES. Where “and” joins values, the source holds several entries; their conditions need not be identical. Identical values can stand only once. Toxic doses and inconclusive results are not listed. Square brackets hold non-standard residues; d marks the D form. Peptide text beside a SMILES is read from it. ξ: configuration not given here. ξhCys = NC(CCS)C(=O)O

On to `O=C1S/C(=C2\C(=O)N(CN3CCOCC3)c3ccc(Br)cc32)C(=O)N1CN1CCOCC1`, for which the T/C is 100 % of control under setting [1], 106 % of control under setting [2] and 102 % of control under setting [3].
On to `CC(=O)/C=C/C=C\C=C/N=C(c1ccccc1)c1ccccc1`, for which the T/C reads like this: (dose: 50.0 mg/kg/injection, schedule: Q04DX003 (ip), vehicle: saline with Tween-80) 95 % of control; under setting [4], 93 % of control; under setting [5], 93 % of control.
Regarding `CCN(CC)CCOC(=O)C(c1ccccc1)C1(O)CCCCC1` (centres undefined), the T/C is, setting by setting: (dose: 50.0 mg/kg/injection, schedule: Q01DX005 (ip), vehicle: saline) 100 % of control; (dose: 100.0 mg/kg/injection, schedule: Q01DX005 (ip), vehicle: saline) 107 % of control.
On to `O=C(O)C1CCCN1C(=O)c1ccc(Cl)cc1` (centres undefined), for which the T/C (dose: 12.5 mg/kg/injection, schedule: Q01DX005 (ip), vehicle: distilled water + Tween-80) is 99 % of control; the T/C (dose: 25.0 mg/kg/injection, schedule: Q01DX005 (ip), vehicle: distilled water + Tween-80) is 101 % of control; the T/C (dose: 50.0 mg/kg/injection, schedule: Q01DX005 (ip), vehicle: distilled water + Tween-80) was 97 % of control; the T/C (dose: 100.0 mg/kg/injection, schedule: Q01DX005 (ip), vehicle: distilled water + Tween-80) is 100 % of control; the T/C (dose: 200.0 mg/kg/injection, schedule: Q01DX005 (ip), vehicle: distilled water + Tween-80) was 104 % of control.
With `N.N.N.N.N.N.[Cl-].[Pt]`, the T/C is 92 % of control (dose: 12.5 mg/kg/injection, schedule: Q01DX009 (ip), vehicle: saline) and 97 % of control (dose: 25.0 mg/kg/injection, schedule: Q01DX009 (ip), vehicle: saline).
Take `CCCCCCCCC#CC(=O)O`: the T/C (dose: 50.0 mg/kg/injection, schedule: Q01DX009 (ip), vehicle: saline with Tween-80) is 94 % of control; the T/C (dose: 100.0 mg/kg/injection, schedule: Q01DX009 (ip), vehicle: saline with Tween-80) is 95 % of control; the T/C (dose: 200.0 mg/kg/injection, schedule: Q01DX009 (ip), vehicle: saline with Tween-80) was 86 % of control.
Consider `COc1cc2c(cc1O)CCCCC2`, for which the T/C was 101 % of control (dose: 100.0 mg/kg/injection, schedule: Q01DX009 (sc), vehicle: olive oil, sesame oil, peanut oil); 101 % of control (dose: 200.0 mg/kg/injection, schedule: Q01DX009 (sc), vehicle: olive oil, sesame oil, peanut oil); 104 % of control (dose: 400.0 mg/kg/injection, schedule: Q01DX009 (sc), vehicle: olive oil, sesame oil, peanut oil).
Turning to `Cn1nnnc1/C=C/c1ccccc1`, the T/C reads like this: (dose: 100.0 mg/kg/injection, schedule: Q04DX003 (ip), vehicle: Klucel (hydroxypropylcellulose) (HPC)) 106 % of control; (dose: 200.0 mg/kg/injection, schedule: Q04DX003 (ip), vehicle: Klucel (hydroxypropylcellulose) (HPC)) 104 % of control; (dose: 400.0 mg/kg/injection, schedule: Q04DX003 (ip), vehicle: Klucel (hydroxypropylcellulose) (HPC)) 105 % of control.
Take `O=C(Cc1ccc([N+](=O)[O-])cc1)ON1C(=O)CCC1=O`: the T/C was 117 % of control under setting [6] and 114 % of control under setting [7].
Turning to `Nc1cc(=O)[nH][nH]1`, the T/C under setting [4] is 100 % of control, the T/C under setting [5] was 100 % of control and the T/C under setting [8] was 109 % of control.
As for `Cc1ccc([N+](=O)[O-])cc1NC(=O)Oc1ccccc1`, the T/C reads like this: (dose: 100.0 mg/kg/injection, schedule: Q01DX009 (ip), vehicle: other) 90 % of control; (dose: 200.0 mg/kg/injection, schedule: Q01DX009 (ip), vehicle: other) 110 % of control; (dose: 400.0 mg/kg/injection, schedule: Q01DX009 (ip), vehicle: other) 100 % of control.
Take `CCOC(=O)C1=C(Nc2ccc(Cl)cc2)C(=O)N(C(C)(C)C)C1`: the T/C was 111 % of control under setting [6], 108 % of control under setting [7] and 109 % of control under setting [9].
As to `CC(N)CCc1ccccc1` (centres undefined), the T/C is, setting by setting: (dose: 12.5 mg/kg/injection, schedule: Q01DX009 (ip), vehicle: saline sonified) 100 % of control; (dose: 25.0 mg/kg/injection, schedule: Q01DX009 (ip), vehicle: saline sonified) 100 % of control; (dose: 50.0 mg/kg/injection, schedule: Q01DX009 (ip), vehicle: saline sonified) 100 % of control.
As to `CC(C)NCCCNCC(=O)Nc1ccc(S(=O)(=O)c2ccc(NC(=O)CNCCCNC(C)C)cc2)cc1`, the T/C is 104 % of control (dose: 12.5 mg/kg/injection, schedule: Q01DX005 (ip), vehicle: Klucel (hydroxypropylcellulose) (HPC)); 102 % of control (dose: 25.0 mg/kg/injection, schedule: Q01DX005 (ip), vehicle: Klucel (hydroxypropylcellulose) (HPC)); 103 % of control under setting [1].
Take `CN(C)c1ccc(/C=C/c2ccnnc2)cc1`: the T/C under setting [10] was 99 % of control; the T/C under setting [11] is 104 % of control; the T/C (dose: 200.0 mg/kg/injection, schedule: Q01DX009 (ip), vehicle: saline) was 100 % of control.
On to `O=C1Nc2ccccc2/C1=N/N=c1\scc(-c2ccc(Br)cc2)n1-c1ccc(Cl)cc1`, for which the T/C reads like this: (dose: 50.0 mg/kg/injection, schedule: Q01DX001 (ip), vehicle: saline with Tween-80) 93 % of control; (dose: 100.0 mg/kg/injection, schedule: Q01DX001 (ip), vehicle: saline with Tween-80) 99 % of control; (dose: 200.0 mg/kg/injection, schedule: Q01DX001 (ip), vehicle: saline with Tween-80) 89 % of control and 94 % of control.
On to `C[Si](C)(C)C1=CC[C@H]2C(=O)N(c3ccccc3)C(=O)[C@H]2C1=O`, for which the T/C (dose: 50.0 mg/kg/injection, schedule: Q01DX005 (ip), vehicle: saline with Tween-80) is 107 % of control; the T/C (dose: 100.0 mg/kg/injection, schedule: Q01DX005 (ip), vehicle: saline with Tween-80) is 118 % of control; the T/C (dose: 200.0 mg/kg/injection, schedule: Q01DX005 (ip), vehicle: saline with Tween-80) is 111 % of control.
Consider `CCSCCC(NC(=O)CN)C(=O)O` (centres undefined) (H-Gly-[ξhCys](Et)-OH), for which the T/C is 112 % of control under setting [10] and 94 % of control under setting [11].
In the case of `O=NNc1ncc(Br)cc1Br`, the T/C by setting is: (dose: 1.56 mg/kg/injection, schedule: Q01DX009 (ip), vehicle: water) 100 % of control; (dose: 3.12 mg/kg/injection, schedule: Q01DX009 (ip), vehicle: water) 99 % of control and 107 % of control; (dose: 6.25 mg/kg/injection, schedule: Q01DX009 (ip), vehicle: water) 107 % of control and 110 % of control; (dose: 12.5 mg/kg/injection, schedule: Q01DX005 (ip), vehicle: water) 119 % of control and 122 % of control; (dose: 12.5 mg/kg/injection, schedule: Q01DX009 (ip), vehicle: water) 122 % of control; (dose: 25.0 mg/kg/injection, schedule: Q01DX009 (ip), vehicle: water) 122 % of control. For the same molecule, the T/C was 154 % of control and 165 % of control (dose: 50.0 mg/kg/injection, schedule: Q01DX005 (ip), vehicle: water); 175 % of control and 190 % of control and 206 % of control (dose: 100.0 mg/kg/injection, schedule: Q01DX005 (ip), vehicle: water).
As for `Cc1cc(C)c(O)c(N=Nc2ccccc2)c1`, the T/C under setting [4] is 105 % of control, the T/C under setting [5] was 105 % of control and the T/C under setting [8] is 105 % of control.
For `O=[N+]([O-])c1ccc2c(c1)C(N1CCOCC1)c1ccccc1-2` (centres undefined), the T/C runs as follows: under setting [1], 98 % of control; under setting [2], 98 % of control; under setting [3], 100 % of control.
Turning to `Cc1ccc[n+](CCC(N)=O)c1`, the T/C was 100 % of control (dose: 100.0 mg/kg/injection, schedule: Q04DX003 (ip), vehicle: saline); 100 % of control (dose: 200.0 mg/kg/injection, schedule: Q04DX003 (ip), vehicle: saline); 95 % of control (dose: 400.0 mg/kg/injection, schedule: Q04DX003 (ip), vehicle: saline).
As to `Cn1ccnc1CC(C)(O)c1ccccc1` (centres undefined), the T/C under setting [6] is 103 % of control, the T/C under setting [7] was 104 % of control and the T/C under setting [9] was 108 % of control.
`COC1OC(COS(=O)(=O)c2ccc(C)cc2)C2OC(C)(C)OC12` (centres undefined): the T/C by setting is: under setting [1], 95 % of control; under setting [2], 100 % of control.

(Values after PubChem BioAssay AID330 (DTP/NCI, 2004).)
